Data taken from ChEMBL document CHEMBL1201862, “PubChem BioAssay data set” (2004).
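96-well plates; 48 h exposure; 5 concentrations. Endpoints by linear interpolation between flanking doses. Not reached: highest tested concentration assigned. Here, GI50 denotes the concentration required for 50% inhibition of growth.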 Activity calls are given as the source filed them. No stated cut-off is given here; in the data, active = GI50 up to about 1.1 µM and inactive = higher.

Key:
Test in all cases: DTP human tumour cell line panel, 48 h
[1] = tested on: 786-0
[2] = tested on: A498
[3] = tested on: A549
[4] = tested on: ACHN
[5] = tested on: BT-549
[6] = tested on: CAKI-1
[7] = tested on: COLO 205
[8] = tested on: DU-145
[9] = tested on: EKVX
[10] = tested on: HCC 2998
[11] = tested on: HCT-116
[12] = tested on: HCT-15
[13] = tested on: HOP-62
[14] = tested on: HOP-92
[15] = tested on: HT-29
[16] = tested on: Hs-578T
[17] = tested on: IGROV-1
[18] = tested on: K562
[19] = tested on: KM12
[20] = tested on: LOX IMVI
[21] = tested on: M14
[22] = tested on: MCF7
[23] = tested on: MDA-MB-231
[24] = tested on: MDA-MB-435
[25] = tested on: MDA-N
[26] = tested on: MOLT-4
[27] = tested on: Malme-3M
[28] = tested on: NCI-H226
[29] = tested on: NCI-H23
[30] = tested on: NCI-H460
[31] = tested on: NCI-H522
[32] = tested on: NCI/ADR-RES
[33] = tested on: OVCAR-3
[34] = tested on: OVCAR-4
[35] = tested on: OVCAR-5
[36] = tested on: OVCAR-8
[37] = tested on: PC-3
[38] = tested on: RPMI-8226
[39] = tested on: RXF 393
[40] = tested on: SF-268
[41] = tested on: SF-295
[42] = tested on: SF-539
[43] = tested on: SK-MEL-28
[44] = tested on: SK-MEL-2
[45] = tested on: SK-MEL-5
[46] = tested on: SK-OV-3
[47] = tested on: SN12C
[48] = tested on: SNB-19
[49] = tested on: SNB-75
[50] = tested on: SR
[51] = tested on: SW-620
[52] = tested on: T47D
[53] = tested on: TK-10
[54] = tested on: U-251
[55] = tested on: UACC-257
[56] = tested on: UACC-62
[57] = tested on: UO-31
[58] = tested on: CCRF-CEM
[59] = tested on: HL-60

Measured: GI50

Cc1cc(N2CCOCC2)nc2ccc(Cc3ccc4nc(N5CCOCC5)cc(C)c4c3)cc12
41.8 µM: [12]
inactive: [1] 32 µM | [2] 59.4 µM | [3] 41.7 µM | [4] 48.5 µM | [5] 60.7 µM | [6] > 100 µM | [7] 13.3 µM | [8] > 100 µM | [9] 20.7 µM | [10] 15.6 µM | [11] 21.9 µM | [13] > 100 µM | [14] > 100 µM | [15] 18.7 µM | [16] > 100 µM | [17] > 100 µM | [18] 27 µM | [19] > 100 µM | [20] 32.4 µM | [21] 41.1 µM | [22] 37.8 µM | [23] > 100 µM | [24] 43.3 µM | [25] 36.6 µM | [26] 28.8 µM | [27] 51.1 µM | [28] 33.3 µM | [29] 54 µM | [30] 26.7 µM | [31] 26.5 µM | [32] 41.8 µM | [33] 33.3 µM | [34] > 100 µM | [35] > 100 µM | [36] 57.5 µM | [37] 56.4 µM | [38] 20.2 µM | [39] 25.9 µM | [40] > 100 µM | [41] 78.7 µM | [42] 24.2 µM | [43] 39.4 µM | [44] 63.5 µM | [45] 16.2 µM | [46] > 100 µM | [47] 55.8 µM | [48] 49.9 µM | [49] 35.2 µM | [50] 28.3 µM | [51] 35.9 µM | [52] 14.6 µM | [53] 29.4 µM | [54] 26.7 µM | [55] 25.6 µM | [56] 45.8 µM | [57] 38.2 µM

OCCN=C1c2ccccc2C2C(c3ccccc31)C1c3ccccc3C(=NCCO)c3ccccc3C21 (centres undefined)
17.4 µM: [12]
inactive: [1] 28.2 µM | [3] 20.6 µM | [4] 23.6 µM | [5] 23.6 µM | [6] 16.3 µM | [58] 11.6 µM | [7] 15.6 µM | [8] 21.7 µM | [9] 35.9 µM | [10] 22.6 µM | [11] 15.5 µM | [59] 13.9 µM | [13] 18.1 µM | [15] 15.4 µM | [16] 12.6 µM | [17] 15.5 µM | [18] 12.6 µM | [19] 17.1 µM | [20] 22 µM | [21] 20.1 µM | [22] 20.3 µM | [23] 13.8 µM | [24] 18 µM | [25] 15.6 µM | [26] 8.91 µM | [27] 32.4 µM | [29] 44.7 µM | [30] 26.9 µM | [32] 22.2 µM | [33] 18.2 µM | [34] 18.8 µM | [35] 19.6 µM | [36] 26.9 µM | [37] 17.2 µM | [38] 13.6 µM | [39] 22.8 µM | [40] 23.2 µM | [41] 12.9 µM | [42] 18 µM | [43] 17.5 µM | [44] 16.4 µM | [45] 16.8 µM | [46] 22.2 µM | [47] 18.6 µM | [48] 10.7 µM | [49] 20.4 µM | [50] 9.48 µM | [51] 26.1 µM | [52] 21.6 µM | [53] 26.4 µM | [54] 20.2 µM | [55] 24.7 µM | [56] 15.3 µM | [57] 12.5 µM
active: [28] < 0.01 µM

COc1cc(OC)cc(N(C)Cc2cnc3nc(N)nc(N)c3c2C)c1
1.27 µM: [12]
active: [1] 0.427 µM | [3] 0.421 µM | [4] 0.746 µM | [11] 0.358 µM | [13] 0.995 µM | [17] 0.838 µM | [21] 0.652 µM | [22] 0.92 µM | [24] 0.759 µM | [25] 0.631 µM | [26] 0.741 µM | [27] 0.817 µM | [30] 0.474 µM | [35] 0.757 µM | [36] 0.741 µM | [37] 0.565 µM | [40] 0.745 µM | [41] 0.535 µM | [42] 0.385 µM | [45] 0.615 µM | [47] 0.929 µM | [49] 0.0571 µM | [50] 0.541 µM | [51] 0.585 µM | [54] 0.543 µM | [56] 0.719 µM
inactive: [2] 18.7 µM | [5] > 25.7 µM | [6] 2.04 µM | [58] 2.47 µM | [7] 12.6 µM | [8] 4.71 µM | [9] > 47.3 µM | [10] 3.52 µM | [14] 13.3 µM | [15] 2.65 µM | [16] > 68.5 µM | [19] 3.85 µM | [20] 1.16 µM | [23] 21.3 µM | [28] > 41.1 µM | [29] 1.25 µM | [31] 2.21 µM | [32] 5.65 µM | [33] 9.66 µM | [34] 20.1 µM | [38] > 22 µM | [44] > 51.5 µM | [46] 13.6 µM | [48] 12.9 µM | [52] 38.3 µM | [55] 1.56 µM | [57] 5.52 µM

CC(NS(C)(=O)=O)c1ccccc1 (centres undefined)
inactive: [1] > 100 µM | [3] > 100 µM | [5] > 100 µM | [6] > 100 µM | [58] > 100 µM | [7] > 100 µM | [8] > 100 µM | [10] > 100 µM | [11] > 100 µM | [59] > 100 µM | [13] > 100 µM | [15] > 100 µM | [16] > 100 µM | [17] > 100 µM | [18] > 100 µM | [19] > 100 µM | [20] > 100 µM | [21] > 100 µM | [22] > 100 µM | [23] > 100 µM | [24] > 100 µM | [25] > 100 µM | [26] > 100 µM | [27] > 100 µM | [28] > 100 µM | [29] > 100 µM | [30] > 100 µM | [31] > 100 µM | [32] > 100 µM | [33] > 100 µM | [34] > 100 µM | [35] > 100 µM | [36] > 100 µM | [37] > 100 µM | [38] > 100 µM | [39] > 100 µM | [41] > 100 µM | [42] > 100 µM | [43] > 100 µM | [44] > 100 µM | [45] > 100 µM | [46] > 10 µM | [47] > 100 µM | [48] > 100 µM | [49] > 100 µM | [50] > 100 µM | [51] > 100 µM | [52] > 100 µM | [53] > 100 µM | [54] > 100 µM | [55] > 100 µM | [56] > 100 µM | [57] > 100 µM
> 100 µM: [12]

O=C(NCCNCCNC(=O)C(F)(F)F)C(F)(F)F
inactive: [1] > 100 µM | [3] > 100 µM | [4] > 100 µM | [5] > 100 µM | [6] > 100 µM | [58] > 100 µM | [7] > 100 µM | [8] > 100 µM | [9] > 100 µM | [10] > 100 µM | [11] > 100 µM | [59] > 100 µM | [13] > 100 µM | [15] > 100 µM | [16] > 100 µM | [17] > 100 µM | [18] > 100 µM | [19] > 100 µM | [20] > 100 µM | [21] > 100 µM | [22] > 100 µM | [23] > 100 µM | [24] > 100 µM | [25] > 100 µM | [26] > 100 µM | [27] > 100 µM | [28] > 100 µM | [29] > 100 µM | [32] > 100 µM | [33] > 100 µM | [34] > 100 µM | [35] > 100 µM | [36] > 100 µM | [37] > 100 µM | [38] > 100 µM | [39] > 100 µM | [40] > 100 µM | [41] > 100 µM | [43] > 100 µM | [44] > 100 µM | [45] > 100 µM | [46] > 100 µM | [47] > 100 µM | [48] > 100 µM | [50] > 100 µM | [51] > 100 µM | [52] > 100 µM | [53] > 100 µM | [54] > 100 µM | [55] > 100 µM | [56] > 100 µM | [57] > 100 µM
> 100 µM: [12]
